From ChEMBL document CHEMBL1201862, “PubChem BioAssay data set” (2004)
Counter-ions that a name gives are not always drawn. Active and inactive are the calls of the source.

Tests used:
[1] = target: Muscarinic acetylcholine receptor M1 (Rattus norvegicus, UniProt P08482); test: rat M1 positive allosteric modulator potency, dose response, cell-based, calcium mobilization, CHO-K1, ACh EC20 (AID 2425); type: functional
[2] = target: T1, Low molecular weight phosphotyrosine protein phosphatase (Homo sapiens, UniProt P24666); test: LMPTP phosphatase inhibitors, colorimetric pNPP readout, dose response, orthogonal assay, biochemical, absorbance, pNPP substrate, LMPTP-A isoform, set 2 (AID 743308); type: functional
T1 sequence (P24666 whole entry): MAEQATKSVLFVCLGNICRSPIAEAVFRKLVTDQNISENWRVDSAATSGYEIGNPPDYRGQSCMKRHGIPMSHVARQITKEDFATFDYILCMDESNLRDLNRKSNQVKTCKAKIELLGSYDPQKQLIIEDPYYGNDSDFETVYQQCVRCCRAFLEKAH

[3] = target: T1, Low molecular weight phosphotyrosine protein phosphatase; test: LMPTP phosphatase inhibitors, dose response, biochemical, OMFP substrate, fluorescence intensity, set 2 (AID 743307); type: functional
[4] = target: Heat shock protein HSP 90-alpha (Homo sapiens, UniProt P07900); test: Luminescence-based dose response biochemical high throughput screening assay for inhibitors of the Heat Shock Protein 90 (HSP90). [Related pubchem assays: 1831 (Summary AID.), 1846 (Confirmation screen.), 1789 (Primary screen.)]
[5] = target: Voltage-gated inwardly rectifying potassium channel KCNH2 (Homo sapiens, UniProt Q12809); test: hERG protection from proarrhythmic block, potency, dose response, cell-based, thallium flux (AID 2121); type: ADME
Chain of Voltage-gated inwardly rectifying potassium channel KCNH2 (Q12809 whole entry): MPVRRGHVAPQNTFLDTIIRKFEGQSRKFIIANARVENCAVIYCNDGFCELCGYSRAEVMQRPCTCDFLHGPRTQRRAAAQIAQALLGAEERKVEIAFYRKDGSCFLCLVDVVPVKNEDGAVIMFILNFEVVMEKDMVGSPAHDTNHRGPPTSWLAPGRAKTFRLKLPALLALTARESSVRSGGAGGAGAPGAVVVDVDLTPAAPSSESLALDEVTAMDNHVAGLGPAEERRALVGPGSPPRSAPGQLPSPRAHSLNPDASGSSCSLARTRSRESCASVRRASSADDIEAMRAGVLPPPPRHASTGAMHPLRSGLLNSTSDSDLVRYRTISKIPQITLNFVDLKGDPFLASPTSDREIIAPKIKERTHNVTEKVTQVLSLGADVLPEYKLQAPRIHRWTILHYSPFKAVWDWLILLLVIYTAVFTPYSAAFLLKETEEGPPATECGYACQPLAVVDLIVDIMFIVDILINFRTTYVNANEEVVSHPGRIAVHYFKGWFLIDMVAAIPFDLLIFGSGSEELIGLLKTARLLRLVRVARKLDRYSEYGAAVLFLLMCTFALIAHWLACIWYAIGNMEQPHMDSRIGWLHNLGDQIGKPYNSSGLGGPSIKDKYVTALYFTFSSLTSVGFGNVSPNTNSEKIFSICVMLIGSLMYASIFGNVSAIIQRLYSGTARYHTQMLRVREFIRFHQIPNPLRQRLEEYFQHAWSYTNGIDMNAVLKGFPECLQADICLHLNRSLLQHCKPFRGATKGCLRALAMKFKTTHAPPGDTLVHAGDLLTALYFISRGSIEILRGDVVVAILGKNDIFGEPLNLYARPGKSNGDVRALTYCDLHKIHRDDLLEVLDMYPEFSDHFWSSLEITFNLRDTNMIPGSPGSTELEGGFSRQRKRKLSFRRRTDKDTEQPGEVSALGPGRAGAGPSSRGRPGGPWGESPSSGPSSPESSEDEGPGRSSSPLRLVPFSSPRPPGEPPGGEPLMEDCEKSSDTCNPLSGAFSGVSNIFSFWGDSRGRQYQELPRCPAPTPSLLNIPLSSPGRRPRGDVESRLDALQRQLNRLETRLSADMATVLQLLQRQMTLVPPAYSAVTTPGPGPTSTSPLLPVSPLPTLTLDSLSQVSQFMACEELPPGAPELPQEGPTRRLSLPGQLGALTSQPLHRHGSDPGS

[6] = HEp-2 cell cytotoxicity, dose response, cytotoxicity control for RSV inhibitor project, HTS (AID 2410); type: functional; details: human respiratory syncytial virus
[7] = Luminescence-based cell-based high throughput dose response assay to identify activators of the DAF-12 from the parasite S. stercoralis (ssDAF-12).; type: functional
[8] = target: T2, Protein skinhead-1 (Caenorhabditis elegans, UniProt P34707); type: functional
T2 sequence (P34707 whole entry): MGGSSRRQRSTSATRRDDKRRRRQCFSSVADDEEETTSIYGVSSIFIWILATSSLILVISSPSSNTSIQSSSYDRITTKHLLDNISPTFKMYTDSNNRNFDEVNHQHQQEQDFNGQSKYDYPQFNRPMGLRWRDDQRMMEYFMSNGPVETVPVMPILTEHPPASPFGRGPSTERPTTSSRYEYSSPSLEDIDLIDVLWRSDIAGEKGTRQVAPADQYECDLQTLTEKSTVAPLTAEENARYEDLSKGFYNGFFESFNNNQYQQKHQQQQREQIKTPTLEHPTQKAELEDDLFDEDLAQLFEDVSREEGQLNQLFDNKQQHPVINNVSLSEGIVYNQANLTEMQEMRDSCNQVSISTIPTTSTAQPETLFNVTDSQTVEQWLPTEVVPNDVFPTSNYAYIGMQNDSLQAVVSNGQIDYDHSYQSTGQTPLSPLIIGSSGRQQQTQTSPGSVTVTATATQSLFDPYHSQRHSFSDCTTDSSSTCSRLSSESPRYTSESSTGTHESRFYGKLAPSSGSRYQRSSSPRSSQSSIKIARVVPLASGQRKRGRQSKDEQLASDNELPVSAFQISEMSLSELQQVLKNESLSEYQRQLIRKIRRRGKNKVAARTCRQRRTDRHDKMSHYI

[9] = target: G-protein coupled receptor 55 (Homo sapiens, UniProt Q9Y2T6); test: GPR55 agonists via beta-arrestin recruitment, primary screen, imaging, U2OS cells, beta-arrestin-GFP redistribution (AID 1961); type: functional
Chain of G-protein coupled receptor 55 (Q9Y2T6 whole entry, the tested form may be a part): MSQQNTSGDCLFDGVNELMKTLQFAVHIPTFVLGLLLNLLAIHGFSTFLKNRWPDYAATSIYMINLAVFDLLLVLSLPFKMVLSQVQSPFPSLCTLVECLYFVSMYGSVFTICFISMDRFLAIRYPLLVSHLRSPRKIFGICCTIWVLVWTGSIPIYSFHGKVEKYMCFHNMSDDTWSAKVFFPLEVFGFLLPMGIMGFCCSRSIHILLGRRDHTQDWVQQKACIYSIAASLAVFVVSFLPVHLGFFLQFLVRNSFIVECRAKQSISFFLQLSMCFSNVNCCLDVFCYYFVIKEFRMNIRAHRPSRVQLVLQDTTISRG

[10] = target: T3, Oxysterols receptor LXR-beta (Homo sapiens, UniProt P55055); type: functional, cell-based;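 note: agonist activity at LXR measured by a cell-based luminescence readout across a dose range, run as a counterscreen for daf-12 agonists; potency for activation of Gal4-LXR reporter so compounds are agonists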
T3 sequence (P55055 whole entry): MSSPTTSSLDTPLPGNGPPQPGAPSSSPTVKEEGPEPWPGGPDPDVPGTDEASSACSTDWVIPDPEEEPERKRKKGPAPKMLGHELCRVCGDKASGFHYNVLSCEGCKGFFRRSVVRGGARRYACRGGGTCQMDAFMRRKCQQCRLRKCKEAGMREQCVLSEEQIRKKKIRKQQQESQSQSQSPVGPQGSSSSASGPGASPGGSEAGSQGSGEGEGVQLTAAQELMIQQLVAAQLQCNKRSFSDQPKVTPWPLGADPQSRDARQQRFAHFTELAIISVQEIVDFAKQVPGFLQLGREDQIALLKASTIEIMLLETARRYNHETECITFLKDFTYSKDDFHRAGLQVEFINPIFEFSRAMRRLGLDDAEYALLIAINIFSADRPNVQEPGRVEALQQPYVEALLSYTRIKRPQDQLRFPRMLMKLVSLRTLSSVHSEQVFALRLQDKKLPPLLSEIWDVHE

[11] = target: T3, Oxysterols receptor LXR-beta; test: LXR agonists, Gal4 luciferase reporter, dose response, counter-screen for ssDAF-12 agonist project, cell-based, luminescence, HEK293, S. stercoralis campaign (AID 720737); type: functional; details: read-out: IC50 (the source's name)
[12] = inhibitors of Vif binding to APOBEC3G peptide, primary screen, biochemical, TR-FRET, GST-Vif 1-94, biotin-A3G peptide, dose response retest (AID 1117319); type: functional;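 note: TR-FRET signal of purified GST-Vif binding a biotinylated A3G peptide; inhibitors lower the FRET signal by blocking Vif and A3G binding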
[13] = Dose-response inhibition of insulin secretion in a rat insulinoma line at 5 mM glucose (AID 1117331); type: functional, cell-based; details: INS-1E
[14] = cells; type: functional, cell-based; details: INS-1E
[15] = target: Ubiquitin carboxyl-terminal hydrolase BAP1 (Homo sapiens, UniProt Q92560); test: BAP1 deubiquitinase inhibitors, dose response, biochemical (AID 714); type: functional
Chain of Ubiquitin carboxyl-terminal hydrolase BAP1 (Q92560 whole entry): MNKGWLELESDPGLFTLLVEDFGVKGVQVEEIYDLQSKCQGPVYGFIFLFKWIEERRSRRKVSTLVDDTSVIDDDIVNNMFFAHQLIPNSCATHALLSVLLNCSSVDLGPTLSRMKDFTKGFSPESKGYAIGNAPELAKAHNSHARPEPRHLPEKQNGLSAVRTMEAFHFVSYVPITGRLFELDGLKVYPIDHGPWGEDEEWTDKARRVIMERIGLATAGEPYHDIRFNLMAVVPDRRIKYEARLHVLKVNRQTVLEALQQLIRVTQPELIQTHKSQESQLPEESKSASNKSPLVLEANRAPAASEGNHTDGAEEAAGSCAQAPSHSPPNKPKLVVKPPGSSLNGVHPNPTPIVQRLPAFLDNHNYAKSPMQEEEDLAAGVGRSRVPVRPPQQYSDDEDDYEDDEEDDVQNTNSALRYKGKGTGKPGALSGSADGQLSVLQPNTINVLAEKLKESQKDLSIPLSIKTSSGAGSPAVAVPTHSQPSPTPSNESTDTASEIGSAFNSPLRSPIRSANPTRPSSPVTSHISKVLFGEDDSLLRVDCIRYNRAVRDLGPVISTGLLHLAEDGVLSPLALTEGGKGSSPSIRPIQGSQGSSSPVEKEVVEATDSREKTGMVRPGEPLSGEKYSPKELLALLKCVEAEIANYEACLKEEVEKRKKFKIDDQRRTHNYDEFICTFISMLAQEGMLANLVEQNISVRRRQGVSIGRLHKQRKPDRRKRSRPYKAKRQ

[16] = HepG2 cell cytotoxicity, dose response, cytotoxicity control, cherry-picked samples (AID 1159577); type: functional, cell-based
[17] = P. falciparum Dd2 growth inhibitors, dose response, SYBR Green, cherry-picked samples (AID 1159567); type: functional, cell-based
[18] = target: T4, Corticotropin-releasing factor receptor 2/Corticotropin-releasing factor-binding protein (Homo sapiens, UniProt P24387+Q13324); test: Dose Response confirmation of uHTS hits for small molecule antagonists of the CRF-binding protein and CRF-R2 receptor complex.; type: functional; details: read-out: IC50_Mean
T4 sequence (Q13324 whole entry): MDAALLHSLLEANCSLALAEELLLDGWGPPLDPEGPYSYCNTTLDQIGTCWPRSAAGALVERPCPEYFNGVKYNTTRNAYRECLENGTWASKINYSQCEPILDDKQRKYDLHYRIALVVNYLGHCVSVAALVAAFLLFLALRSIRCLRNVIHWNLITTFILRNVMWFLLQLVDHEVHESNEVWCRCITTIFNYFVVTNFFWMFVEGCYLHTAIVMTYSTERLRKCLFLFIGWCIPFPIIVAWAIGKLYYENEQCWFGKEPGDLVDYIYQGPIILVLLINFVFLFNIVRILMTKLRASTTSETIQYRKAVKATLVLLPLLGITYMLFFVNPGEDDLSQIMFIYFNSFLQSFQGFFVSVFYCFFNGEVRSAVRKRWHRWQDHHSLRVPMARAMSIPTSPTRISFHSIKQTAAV
T4 sequence (P24387 whole entry): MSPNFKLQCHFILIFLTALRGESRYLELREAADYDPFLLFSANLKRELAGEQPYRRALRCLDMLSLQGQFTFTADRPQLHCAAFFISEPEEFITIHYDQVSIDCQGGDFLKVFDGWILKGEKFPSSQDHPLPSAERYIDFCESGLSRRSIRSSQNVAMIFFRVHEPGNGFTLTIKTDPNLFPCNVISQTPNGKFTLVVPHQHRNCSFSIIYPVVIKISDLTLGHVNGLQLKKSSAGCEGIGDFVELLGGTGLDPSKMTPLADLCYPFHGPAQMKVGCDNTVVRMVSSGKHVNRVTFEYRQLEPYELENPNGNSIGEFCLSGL

[19] = target: T4, Corticotropin-releasing factor receptor 2/Corticotropin-releasing factor-binding protein; test: activators of CRF receptor 2 with binding protein – uHTS hits, confirmation (AID 602473); type: functional; details: read-out: EC50_Mean
[20] = Vero cell cytotoxicity, dose response, cytotoxicity control for Vif-APOBEC3G degradation inhibitor project, Vero cells (AID 1117358); type: functional; details: Human immunodeficiency virus 1, Vero
[21] = target: Ephrin type-A receptor 4 (Mus musculus, UniProt Q03137); test: inhibitors of EphA4 binding to KYL peptide, primary screen, biochemical, colorimetric, mouse EphA4 (AID 689); type: functional
[22] = P. falciparum late gametocyte killing, dose response, luminescence (AID 1117278); type: functional, cell-based;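 note: gametocytes exposed to compound for 24 hours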
[23] = target: T5, Heat shock factor protein 1 (Mus musculus, UniProt P38532); test: HSF1 potentiators in luciferase reporter cells, confirmation, cell-based, NIH3T3, luminescence, dose retest (AID 435004); type: functional;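 note: stress induced by proteasome inhibitor MG132 added 30 min after compound; luciferase reporter driven by HSF1 response element in NIH3T3 cells; actives raise luminescence as potentiators of the MG132 stress response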
T5 sequence (P38532 whole entry): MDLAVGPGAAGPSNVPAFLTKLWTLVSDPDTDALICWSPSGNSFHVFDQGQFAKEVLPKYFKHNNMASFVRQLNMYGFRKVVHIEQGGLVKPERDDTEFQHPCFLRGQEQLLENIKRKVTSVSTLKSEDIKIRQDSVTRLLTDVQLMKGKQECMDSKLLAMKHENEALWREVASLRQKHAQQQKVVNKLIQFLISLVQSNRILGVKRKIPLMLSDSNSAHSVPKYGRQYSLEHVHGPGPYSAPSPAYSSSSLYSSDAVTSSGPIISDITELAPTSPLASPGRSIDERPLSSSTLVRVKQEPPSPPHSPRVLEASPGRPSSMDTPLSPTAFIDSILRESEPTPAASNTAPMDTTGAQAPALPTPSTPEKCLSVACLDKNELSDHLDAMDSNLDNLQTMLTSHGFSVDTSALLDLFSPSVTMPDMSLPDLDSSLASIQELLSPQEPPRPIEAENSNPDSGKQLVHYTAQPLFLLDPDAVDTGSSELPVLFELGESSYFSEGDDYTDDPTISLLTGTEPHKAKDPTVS

[24] = Jurkat T cell cytotoxicity, dose response, cytotoxicity control for P. falciparum gametocyte viability project, luminescence (AID 1117277); type: functional, cell-based;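 note: potency reflects loss of cellular ATP meaning fewer viable cells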
[25] = target: T6, Fatty acid synthase (Homo sapiens, UniProt P49327); test: FAS thioesterase domain inhibitors, dose response, biochemical, kinetic fluorescence intensity (AID 624326); type: functional;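 note: rate of fluorescence rise from hydrolysis of a fluorogenic O-methyl fluorescein ester substrate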
T6 sequence (P49327 whole entry, the tested form may be a part): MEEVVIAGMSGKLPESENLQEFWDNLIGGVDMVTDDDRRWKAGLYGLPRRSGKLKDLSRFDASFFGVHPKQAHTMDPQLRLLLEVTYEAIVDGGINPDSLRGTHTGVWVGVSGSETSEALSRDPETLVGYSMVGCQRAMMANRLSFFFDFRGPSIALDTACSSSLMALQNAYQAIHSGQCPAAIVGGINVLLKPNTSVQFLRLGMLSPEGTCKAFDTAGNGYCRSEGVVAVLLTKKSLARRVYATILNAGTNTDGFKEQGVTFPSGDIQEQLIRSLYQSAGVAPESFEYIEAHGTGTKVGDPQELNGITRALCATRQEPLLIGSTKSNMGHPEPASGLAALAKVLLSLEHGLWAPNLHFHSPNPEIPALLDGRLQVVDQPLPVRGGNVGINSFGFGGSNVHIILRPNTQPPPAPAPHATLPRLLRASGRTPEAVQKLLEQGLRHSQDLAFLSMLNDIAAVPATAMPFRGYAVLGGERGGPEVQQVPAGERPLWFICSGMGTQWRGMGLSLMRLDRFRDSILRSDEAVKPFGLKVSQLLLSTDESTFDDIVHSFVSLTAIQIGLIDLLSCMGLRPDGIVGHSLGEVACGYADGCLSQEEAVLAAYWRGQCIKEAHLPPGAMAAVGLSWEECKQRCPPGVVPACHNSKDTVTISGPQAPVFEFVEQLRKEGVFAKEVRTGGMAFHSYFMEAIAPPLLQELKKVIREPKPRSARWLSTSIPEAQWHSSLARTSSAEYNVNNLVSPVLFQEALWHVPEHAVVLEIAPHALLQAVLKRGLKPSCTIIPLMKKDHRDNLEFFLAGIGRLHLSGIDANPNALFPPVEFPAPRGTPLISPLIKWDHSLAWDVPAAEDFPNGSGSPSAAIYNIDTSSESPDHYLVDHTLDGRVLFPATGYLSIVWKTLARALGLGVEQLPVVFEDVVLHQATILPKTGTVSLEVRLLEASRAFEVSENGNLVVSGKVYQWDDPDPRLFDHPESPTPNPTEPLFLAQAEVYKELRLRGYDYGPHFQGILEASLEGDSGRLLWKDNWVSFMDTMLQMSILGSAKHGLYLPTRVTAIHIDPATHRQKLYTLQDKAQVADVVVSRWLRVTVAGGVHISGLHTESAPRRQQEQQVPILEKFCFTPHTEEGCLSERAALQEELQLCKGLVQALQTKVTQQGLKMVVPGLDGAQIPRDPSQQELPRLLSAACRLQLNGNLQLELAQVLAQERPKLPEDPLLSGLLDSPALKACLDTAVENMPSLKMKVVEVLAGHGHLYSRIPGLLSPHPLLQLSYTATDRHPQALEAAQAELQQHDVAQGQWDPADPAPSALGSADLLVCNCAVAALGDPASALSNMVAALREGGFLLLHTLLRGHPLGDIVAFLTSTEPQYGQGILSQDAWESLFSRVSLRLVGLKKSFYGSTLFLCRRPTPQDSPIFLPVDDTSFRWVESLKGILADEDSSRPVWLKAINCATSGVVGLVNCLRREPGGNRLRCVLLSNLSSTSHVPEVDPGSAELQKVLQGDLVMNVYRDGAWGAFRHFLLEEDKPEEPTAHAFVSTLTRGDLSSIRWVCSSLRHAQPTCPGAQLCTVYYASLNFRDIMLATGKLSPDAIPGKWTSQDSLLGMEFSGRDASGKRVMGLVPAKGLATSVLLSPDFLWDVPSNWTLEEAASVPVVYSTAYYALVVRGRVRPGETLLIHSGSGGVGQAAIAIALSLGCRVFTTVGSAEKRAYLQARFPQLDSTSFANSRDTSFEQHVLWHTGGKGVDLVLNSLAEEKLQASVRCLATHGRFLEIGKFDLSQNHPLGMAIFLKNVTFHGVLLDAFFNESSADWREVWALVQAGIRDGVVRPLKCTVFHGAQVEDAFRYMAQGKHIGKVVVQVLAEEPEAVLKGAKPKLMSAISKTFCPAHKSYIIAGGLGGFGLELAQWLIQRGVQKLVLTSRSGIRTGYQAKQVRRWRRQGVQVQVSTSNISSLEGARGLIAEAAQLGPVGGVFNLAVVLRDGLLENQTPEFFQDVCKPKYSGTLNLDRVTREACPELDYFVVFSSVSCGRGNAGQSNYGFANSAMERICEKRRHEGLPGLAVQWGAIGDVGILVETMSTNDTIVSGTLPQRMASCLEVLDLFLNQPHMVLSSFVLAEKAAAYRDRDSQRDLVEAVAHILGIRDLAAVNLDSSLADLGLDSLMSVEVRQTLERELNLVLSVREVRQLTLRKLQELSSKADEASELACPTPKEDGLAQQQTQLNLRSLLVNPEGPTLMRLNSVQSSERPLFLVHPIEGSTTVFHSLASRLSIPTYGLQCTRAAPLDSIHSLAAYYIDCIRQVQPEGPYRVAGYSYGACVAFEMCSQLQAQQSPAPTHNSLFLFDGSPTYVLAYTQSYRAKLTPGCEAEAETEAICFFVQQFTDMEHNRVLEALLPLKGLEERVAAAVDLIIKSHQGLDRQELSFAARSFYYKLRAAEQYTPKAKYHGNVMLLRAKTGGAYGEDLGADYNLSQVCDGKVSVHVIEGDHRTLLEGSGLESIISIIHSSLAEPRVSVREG

[26] = target: T6, Fatty acid synthase; test: FAS thioesterase domain inhibitors, dose response, biochemical, endpoint fluorescence intensity, uHTS hits (AID 624327); type: functional;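 note: fluorescence from hydrolysis of an O-methyl fluorescein acyl ester substrate by the enzyme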
[27] = target: E3 ubiquitin-protein ligase Mdm2 (Homo sapiens, UniProt Q00987); test: enhancers of MDM2-luciferase reporter signal, concentration-effect titration, project on inhibitors of MDM2 ubiquitin ligase, cellular assay, luminescent readout, 384-well plate format (AID 1394); type: functional;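 note: MDM2 E3 inhibitors raise luminescence so EC50 is for signal enhancement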

In the case of `Cc1cc(NC(=O)CS(=O)(=O)c2cn(Cc3cccc(-c4ccn(C)n4)c3)c3ccccc23)no1`, the EC50 [1] is reported as 3.45 µM (active).

For `Brc1ccc2nc(-c3ccccc3)cc(NCCCN3CCCCC3)c2c1`, the IC50 [2] was > 80 µM (inactive) and the IC50 [3] was > 80 µM (inactive).

With `CN(C)c1ccc(C2Nc3cccc4cccc(c34)N2)cc1` the IC50 [4] was 6.25 µM (active).

For `Sc1ncnc2c1sc1nc(-c3ccccc3)c3c(c12)CCCC3`, the EC50 [5] was 1.69 µM (active) and the CC50 [6] was 16.9 µM (active).

In the case of `N=C(NOC(=O)c1cc(Br)ccc1Cl)c1ccccn1`, the IC50 [7] is reported as > 67.5 µM (inactive), the IC50 [8] is reported as 41.8 µM (active) and the EC50 [9] is reported as 31.4 µM (inactive). For the same compound, the EC50 [10] was > 67.5 µM (inactive) and the EC50 [11] was > 67.5 µM (inactive).

In the case of `CCc1ccccc1NC(=O)CC(O)(C(=O)OC)C(F)(F)F` (configuration not stated), the IC50 [12] is reported as > 100 µM (active).

For `CN(C)CCC[C@@]1(c2ccc(F)cc2)OCc2cc(C#N)ccc21` [ESCITALOPRAM OXALATE], the IC50 [13] was 5.45 µM (inactive) and the IC50 [14] was > 33.3 µM (inactive).

In the case of `Cc1sc(NC(=O)CSc2nnc(COc3ccc(Cl)cc3)n2C)c(C#N)c1C`, the IC50 [15] is reported as > 50 µM (not active).

In the case of `OC[C@H]1Nc2ccc(-c3cccc(F)c3)cc2[C@@H]2[C@H]1CCN2Cc1ccc(F)cc1`, the AC50 [16] is reported as > 39 µM (inactive) and the AC50 [17] is reported as 4.27 µM (active).

For `O=C1CSC(c2nn(-c3ccccc3)cc2-c2cc3ccccc3oc2=O)N1Cc1ccco1` (configuration not stated), the IC50 [18] was 19.2 µM (active), the EC50 [19] was > 53 µM (inactive) and the CC50 [20] was > 40 µM (active).

For `CCOC(=O)N1CCN(C(=O)CSc2nnc(-c3c[nH]c4ccccc34)n2CCOC)CC1`, the IC50 [21] was > 100 µM (not active).

For `Cc1cc2c(cc1C)C(c1cccc([N+](=O)[O-])c1)CC(=O)N2` (configuration not stated), the IC50 [22] was > 109 µM (inactive), the EC50 [23] was > 260 µM (inactive) and the IC50 [24] was > 83.2 µM (inactive). For the same compound, the IC50 [25] was 7.33 µM (active) and the IC50 [26] was 5.61 µM (active).

With `Cn1cc/c(=N\C=C(C#N)C#N)c2ccccc21` the EC50 [27] was 3.98 µM (not active).
